The source of these data is US7973071B2, “Substituted gamma lactams as therapeutic agents” (Allergan, Inc., priority 2005, dated 2011).

The target of one experiment is T1, EP4 receptors (Homo sapiens, UniProt P35408).
T1 construct: expressed in transfected cells; host or cells: HEK-293
Put plainly: Radioligand binding vs [3H]PGE2, EP4. The method, then: HEK-293 cells stably expressing the human or feline FP receptor, or EP1, EP2, or EP4 receptors were washed with TME buffer, scraped from the bottom of the flasks, and homogenized for 30 sec using a Brinkman PT 10/35 polytron. TME buffer was added to achieve a final 40 ml volume in the centrifuge tubes (the composition of TME is 100 mM TRIS base, 20 mM MgCl2, […]; 10N HCl is added to achieve a pH of 7.4).
The cell homogenate was centrifuged at 19000 r.p.m. for 20 min at 4° C. using a Beckman Ti-60 rotor. The resultant pellet was resuspended in TME buffer to give a final 1 mg/ml protein concentration, as determined by Biorad assay. Radioligand binding competition assays vs. [^3H-]17 phenyl PGF2α, (5 nM) were performed in a 1001μvolume for 60 min. Binding reactions were started by adding plasma membrane fraction. The reaction was terminated by the addition of 4 ml ice-cold TRIS-HCl buffer and rapid filtration through glass fiber GF/B filters using a Brandel cell harvester. The filters were washed 3 times with ice-cold buffer and oven dried for one hour.
[^3H-] PGE2 (specific activity 180 Ci mmol) was used as the radioligand for EP receptors. [^3H] 17-phenyl PGF2α was employed for FP receptor binding studies. […] 17-phenyl PGF2α and non-specific binding determined with 10^−5M of unlabeled PGE2, or 17-phenyl PGF2α, according to receptor subtype studied.

Experiment [1] has as its target T2, EP2 (Homo sapiens, UniProt P43116). Put plainly: EP2 cAMP assay. Format: cell-based. (In general: Cyclic AMP is a second messenger, typically raised through Gs and lowered through Gi signalling.)
The target of another experiment is T3, hEP3A/Gqi5 (Homo sapiens, UniProt P43115).
T3 construct: expressed in transfected cells; host or cells: HEK-293(EBNA)
T3 sequence (P43115 1-390): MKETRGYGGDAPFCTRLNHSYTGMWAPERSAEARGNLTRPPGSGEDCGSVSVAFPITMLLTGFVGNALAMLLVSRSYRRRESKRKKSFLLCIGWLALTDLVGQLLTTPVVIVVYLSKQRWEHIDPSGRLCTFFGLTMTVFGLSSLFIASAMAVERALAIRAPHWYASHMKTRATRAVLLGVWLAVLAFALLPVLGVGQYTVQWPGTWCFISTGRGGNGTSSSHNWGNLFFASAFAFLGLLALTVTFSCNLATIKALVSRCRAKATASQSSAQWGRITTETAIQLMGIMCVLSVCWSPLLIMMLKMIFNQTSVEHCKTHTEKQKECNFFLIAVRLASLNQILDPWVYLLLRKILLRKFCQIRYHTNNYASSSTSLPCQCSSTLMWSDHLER
Put plainly: FLIPR calcium signal study, EP3A. It is filed as cell-based. To be noted: read-out: Other Receptors hEP3A EC50. The method, then:
HEK-293(EBNA) cells, stably expressing one type or subtype of recombinant human prostaglandin receptors (prostaglandin receptors expressed: hDP/Gqs5; hEP1; hEP2/Gqs5; hEP3A/Gqi5; hEP4/Gqs5; hFP; hIP; hTP), were cultured in 100 mm culture dishes in high-glucose DMEM medium containing 10% fetal bovine serum, 2 mM 1-glutamine, 250 μg/ml geneticin (G418) and 200 μg/ml hygromycin B as selection markers, and 100 units/ml penicillin G, 100 μg/ml streptomycin and 0.25 μg/ml amphotericin B.
Cells were seeded at a density of 5×10^4 cells per well in Biocoat® Poly-D-lysine-coated black-wall, clear-bottom 96-well plates (Becton-Dickinson) and allowed to attach overnight in an incubator at 37° C. Cells were then washed two times with HBSS-HEPES buffer (Hanks Balanced Salt Solution without bicarbonate and phenol red, 20 mM HEPES, pH 7.4) using a Denley Cellwash plate washer (Labsystems). […]
Cells were excited with an Argon laser at 488 nm, and emission was measured through a 510-570 nm bandwidth emission filter (FLIPR™, Molecular Devices, Sunnyvale, Calif.). […] The peak increase in fluorescence intensity was recorded for each well. […] The peak fluorescence change in each drug-containing well was then expressed relative to the controls. […]

For experiment [2], the target named is T2, EP2. Put plainly: Competition binding vs [3H]PGE2, EP2. The arrangement: expressed in transfected cells; host or cells: HEK 293. To be noted: HEK 293 cells stably expressing human EP2. The method, then:
Competition binding experiments were performed in a medium containing Hank's balanced salt solution, Hepes 20 mM, pH 7.3, membranes (˜60 μg protein) or 2×10^5 cells from HEK 293 cells stably expressing human EP2 receptors, [^3H]PGE2 (10 nM) and various concentrations of test compounds in a total volume of 300 μl. Reaction mixtures were incubated at 23° C. for 60 min, and were filtered over Whatman GF/B filters under vacuum. Filters were washed three times with 5 ml ice-cold buffer containing 50 mM Tris/HCl (pH 7.3). Non-specific binding was estimated in the presence of excess unlabeled PGE2 (10 μM). Binding data fitted to the binding model for a single class of binding sites, using nonlinear regression analysis. IC50 values thus obtained were converted to Ki using the equation of Ki=(IC50/(1+[L]/KD) where [L] represents PGE2 concentration (10 nM) and KD the dissociation constant for [^3H]PGE2 at human EP2 receptors (40 nM). […]
The cell homogenate was centrifuged at 19000 r.p.m. for 20 min at 4° C. using a Beckman Ti-60 rotor. The resultant pellet was resuspended in TME buffer to give a final 1 mg/ml protein concentration, as determined by Biorad assay. […]
[^3H-] […] 17-phenyl PGF2α and non-specific binding determined with 10^−5M of unlabeled PGE2, or 17-phenyl PGF2α, according to receptor subtype studied.

T2 sequence (P43116 whole entry): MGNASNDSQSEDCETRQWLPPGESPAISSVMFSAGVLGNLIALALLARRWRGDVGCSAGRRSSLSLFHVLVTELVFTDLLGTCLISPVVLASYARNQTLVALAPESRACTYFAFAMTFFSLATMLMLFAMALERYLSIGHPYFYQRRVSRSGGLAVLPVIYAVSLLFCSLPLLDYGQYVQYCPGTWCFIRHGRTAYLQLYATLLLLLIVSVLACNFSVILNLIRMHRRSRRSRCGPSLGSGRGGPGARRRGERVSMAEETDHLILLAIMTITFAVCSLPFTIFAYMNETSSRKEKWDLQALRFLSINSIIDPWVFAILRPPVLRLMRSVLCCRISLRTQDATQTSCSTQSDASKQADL
T1 sequence (P35408 whole entry): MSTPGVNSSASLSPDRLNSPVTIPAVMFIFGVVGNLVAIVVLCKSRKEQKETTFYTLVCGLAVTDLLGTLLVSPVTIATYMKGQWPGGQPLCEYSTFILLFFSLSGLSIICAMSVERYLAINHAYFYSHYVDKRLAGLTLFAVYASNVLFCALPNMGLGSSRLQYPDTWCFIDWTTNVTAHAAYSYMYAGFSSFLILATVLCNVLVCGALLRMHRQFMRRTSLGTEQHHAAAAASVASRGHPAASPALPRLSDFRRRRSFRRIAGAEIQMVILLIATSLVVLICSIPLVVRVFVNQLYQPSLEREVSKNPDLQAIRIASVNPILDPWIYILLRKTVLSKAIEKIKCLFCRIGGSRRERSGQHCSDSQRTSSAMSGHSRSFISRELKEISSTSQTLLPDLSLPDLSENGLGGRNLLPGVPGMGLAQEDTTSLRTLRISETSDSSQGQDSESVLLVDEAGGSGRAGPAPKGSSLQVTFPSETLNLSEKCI

By Ki is commonly meant the equilibrium dissociation constant of an inhibitor or competing ligand from its target. Low readings indicate tighter binding, high ones weaker binding. As for `CCCCCCC(O)c1ccc(N2C(=O)CC[C@@H]2COCc2ccc(C(=O)O)s2)cc1` (single isomer, unassigned) [Example 34], the Ki on EP4 receptors turned out to be 3.84 µM.

A word on the EC50: it is the concentration needed to bring the measured effect to its halfway point. On to `CCCCCC(O)c1ccc(N2C(=O)CC[C@@H]2COCc2ccc(C(=O)O)s2)cc1` (stereo partly drawn) [Example 9, 5-{(R)-1-[4-(1-Hydroxy-hexyl)-phenyl]-5-oxo-pyrrolidin-2-ylmethoxymethyl}-thiophene-2-carboxylic acid], for which the values for the EC50 on EP2 [1] and at hEP3A/Gqi5 were 0.003 µM and 0.403 µM, respectively. At EP2 [1], `CCCCCCC(O)c1ccc(N2C(=O)CC[C@@H]2CCCc2ccc(C(=O)O)s2)cc1` (stereo partly drawn) [Example 36, 5-(3-{(S)-1-[4-(1-Hydroxy-heptyl)-phenyl]-5-oxo-pyrrolidin-2-yl}-propyl)-thiophene-2-carboxylic acid] returned an EC50 of 0.0009 µM. Further, the Ki on EP2 [2] stood at 0.01 µM. On to `CCCCCCC(O)c1ccc(N2C(=O)CC[C@@H]2COCc2ccc(C(=O)O)s2)cc1` (stereo partly drawn) [Example 13, 5-{(R)-1-[4-(1-Hydroxy-heptyl)-phenyl]-5-oxo-pyrrolidin-2-ylmethoxymethyl}-thiophene-2-carboxylic acid], for which the EC50 on hEP3A/Gqi5 turned out to be 0.519 µM.
